Reference: patent publication US12109245B2, “Extract of aerial parts of Maca rich in polyphenols and composition comprising same” (LABORATOIRES EXPANSCIENCE, priority 2010, dated 2024)

Experiments:
Format in all cases: cell-based
Jurkat cell lines = experiment: UV-induced lipid peroxidation (C11-Fluor probe, flow cytometry); settings: 100 μM BHT
Method: Jurkat cell lines were pre-incubated for 45 minutes in the presence of 0.005% and 0.01% (w/v of active substance) Maca leaf extract (MC) or 100 μM BHT (reference) and in the presence of the C11-Fluor fluorescent probe, specific for lipid peroxidation.
The cells were then irradiated with UVA+B and incubated for 30 minutes in the presence of MC or BHT.
At the end of incubation, the quantity of lipid peroxides was evaluated by means of a flow cytometry analysis of the fluorescence intensity (inversely proportional to oxidation).
The results were analysed were analysed statistically using a Student's t test.

[1] = system: Normal human dermal fibroblasts; experiment: Gene expression of dermal matrix markers in fibroblasts (real-time RT-PCR); settings: 5 ng/ml TGFβ1, 24 hours
Method: Normal human dermal fibroblasts were treated for 24 hours with 0.002% and 0.005% (w/v of active substance) Maca leaf extract (MC) or with 5 ng/ml TGFβ1 (reference).
At the end of incubation, the gene expression of various dermal matrix markers was analysed by means of real-time RT-PCR.
The results were analysed statistically by means of a one-factor ANOVA followed by a Dunnett test.

[2] = system: Human keratinocytes (NCTC-2544 line); experiment: PMA-induced IL8 and PGE2 production by keratinocytes (ELISA)
Method: The cells were then treated with 0.1 μg/ml PMA (Phorbol Myristate Acetate) for 24 hours, also in the presence of MC or the references. Following the treatment, the quantities of IL8 (interleukin8) and PGE2 (prostaglandin E2) secreted were measured by means of ELISA in the culture supernatants. The results were analysed statistically using a Student's t test.

Normal human adipocytes = experiment: Evaluation of lipogenesis in adipocytes ([14C]-acetate incorporation); settings: 20 μM cerulenin
Method: Normal human adipocytes were incubated for 1 hour in the presence of 0.005% and 0.01% (w/v of active substance) Maca leaf extract or reference (20 μM cerulenin). After incubation, the radioactive marker [^14C]-acetate was added and the samples were incubated overnight.
At the end of incubation, the lipids were extracted and the incorporated radioactivity (corresponding to lipogenesis) was measured by means of liquid scintillation.
The results were analysed statistically using a Student's t test.

Human neutrophils = experiment: Release of elastase by neutrophils; settings: 10 μg/ml Boswellic acid
Method: Human neutrophils were treated for 15 minutes with 0.005 and 0.01% (w/v of active substance) Maca leaf extract (MC) or with 10 μg/ml Boswellic acid (reference) and stimulated with 1 μM calcium ionophore A23187, for 10 minutes. The release of elastase was evaluated by measuring the elastase activity with a spectrophotometric method. The results were analysed statistically using a Student's t test.

Cc1cc(C(C)(C)C)c(O)c(C(C)(C)C)c1 [BHT]
Protection (%) against UV-induced lipid peroxidation (Jurkat cell lines): 49%
Lipid peroxidases (% irradiated reference) (Jurkat cell lines; UVA+B irradiated cells = 100): 64%

TGFβ1: 5 ng/ml TGFβ1 (reference) in the dermal fibroblast test
Collagen I gene expression, change vs control [1]: +40%
Dermatopontin gene expression, change vs control [1]: +34%
Elastin gene expression, change vs control [1]: +57%
Fibronectin gene expression, change vs control [1]: +141%
MMP1 gene expression, change vs control [1]: −78%
Collagen I gene expression (Relative Quantity) ([1]; control = 1.00): 1.40
Dermatopontin gene expression (Relative Quantity) ([1]; control = 1.00): 1.34
Elastin gene expression (Relative Quantity) ([1]; control = 1.00): 1.57
Fibronectin gene expression (Relative Quantity) ([1]; control = 1.00): 2.41
MMP1 gene expression (Relative Quantity) ([1]; control = 1.00): 0.22

C[C@@H]1C[C@H]2[C@@H]3CCC4=CC(=O)C=C[C@]4(C)[C@@]3(F)[C@@H](O)C[C@]2(C)[C@@]1(O)C(=O)CO [dexamethasone]
IL8 Inhibition ([2]; 10−7M dexamethasone, 0.1 μg/ml PMA): 85%
IL8 production ([2]; 10−7M dexamethasone, 0.1 μg/ml PMA 24 hours (PMA alone 50.1 ± 1.8)): 7.4 ± 0.08 ng/ml %

COc1ccc2c(c1)c(CC(=O)O)c(C)n2C(=O)c1ccc(Cl)cc1 [indometacin]
PGE2 Inhibition ([2]; 10−6M indometacin, 0.1 μg/ml PMA): 100%
PGE2 production ([2]; 10−6M indometacin, 0.1 μg/ml PMA 24 hours (PMA alone 138.4 ± 10.6)): 0.039 ± 0.0 ng/ml %

C/C=C/C/C=C/CCC(=O)[C@H]1O[C@H]1C(N)=O [Cerulenin, cerulenin]
Acetate incorporation (cpm) (Normal human adipocytes; control cells 32895 ± 1358): 14934 ± 671 cpm
inhibition at 20 µM (Normal human adipocytes; Homo sapiens, Adipocyte): 55%

C[C@H]1[C@H](C)CC[C@]2(C)CC[C@]3(C)C(=CC[C@@H]4[C@@]5(C)CC[C@@H](O)[C@](C)(C(=O)O)[C@@H]5CC[C@]43C)[C@H]12 [Boswellic acid]
Elastase (net release; %) (Human neutrophils; 15 minutes, 1 μM calcium ionophore A23187 = 100): 50.90 ± 7.49%
inhibition at 10 µg/mL (Human neutrophils; Homo sapiens, Neutrophil): 49%
